Measurements reported in patent publication US10875855B2 (priority 2011, dated 2020).
Like-named read-outs stand apart in the source and are kept apart here.

How the values were obtained:
[1] = tested on: influenza A virus (A/PR/8/34); assay: MDCK cytopathic effect (CPE) cell protection assay, ATP detection; format: cell-based; settings: Table 1, MDCK cells, A/PR/8/34, 72 hours, 50% cell protection, mean all, class symbol, read-out: MDCK IC50
[2] = tested on: influenza A virus (A/PR/8/34); assay: microbe, parasite or virus in culture; format: cell-based; settings: mean all, class symbol; for EC99: read-out: bDNA EC99; for EC50: viral RNA 50% of control wells, read-out: bDNA EC50
[3] = Influenza A virus, PR/8, MDCK, 72 h
[4] = Influenza A virus, PR/8, Table 1

Work on CC(C)(C)[C@@H](CC(=O)O)Nc1nc(-c2c[nH]c3ncc(F)cc23)c(C#N)cc1F [Compound 7, (R)-3-(5-cyano-3-fluoro-6-(5-fluoro-1H-pyrrolo[2,3-b]pyridin-3-yl)pyridin-2-ylamino)-4,4-dimethylpentanoic acid] yielded an IC50 [1, 3] of under 300 nM, an EC99 [2, 4] of under 0.3 µM and an EC50 [2, 4] of under 300 nM.
For CC1([C@@H](CC(=O)O)Nc2nc(-c3c[nH]c4ncc(F)cc34)ncc2F)CC1 [Compound 92], the IC50 [1] was 300 to 3300 nM, the “bDNA EC99 (uM)” value ([2]; Table 1) was “C (EC99 (mean all)>3.3 μM)” and the EC50 ([2]; Table 1) was 300 to 3300 nM.
Work on CC(C)(C)[C@@H](CO)Nc1nc(-c2c[nH]c3ncc(F)cc23)c(C#N)cc1F [Compound 24, (S)-5-fluoro-2-(5-fluoro-1H-pyrrolo[2,3-b]pyridin-3-yl)-6-((1-hydroxy-3,3-dimethylbutan-2-yl)amino)nicotinonitrile] yielded an IC50 [1, 3] of under 300 nM, an EC99 [2, 4] of under 0.3 µM and an EC50 [2, 4] of under 300 nM.
Work on CC(C)(C)N(CC(=O)O)Nc1nc(-c2c[nH]c3ncc(C(F)(F)F)cc23)ncc1F [Compound 54, 2-(1-(tert-butyl)-2-(5-fluoro-2-(5-(trifluoromethyl)-1H-pyrrolo[2,3-b]pyridin-3-yl)pyrimidin-4-yl)hydrazinyl)acetic acid] yielded an IC50 [1, 3] of under 300 nM, an EC99 [2, 4] of 0.3 to 3.3 µM and an EC50 [2, 4] of under 300 nM.
For CC(C)(C)[C@@H](CO)Nc1nc(-c2c[nH]c3ncc(F)cc23)ncc1F [Compound 32, (S)-2-(5-fluoro-2-(5-fluoro-1H-pyrrolo[2,3-b]pyridin-3-yl)pyrimidin-4-ylamino)-3,3-dimethylbutane-1-ol], the IC50 [1, 3] was under 300 nM, the EC99 [2, 4] was under 0.3 µM and the EC50 [2, 4] was under 300 nM.
CC(C)(C)[C@@H](CC(O)C(F)(F)F)Nc1nc(-c2c[nH]c3ncc(F)cc23)ncc1F (stereo partly drawn) [Compound 66, (4R)-1,1,1-trifluoro-4-((5-fluoro-2-(5-fluoro-1H-pyrrolo[2,3-b]pyridin-3-yl)pyrimidin-4-yl)amino)-5,5-dimethylhexan-2-ol] gave an IC50 [1, 3] of under 300 nM, an EC99 [2, 4] of 0.3 to 3.3 µM and an EC50 [2, 4] of under 300 nM.
CC(C)(C)[C@@H](CC(O)CO)Nc1nc(-c2c[nH]c3ncc(F)cc23)ncc1F (stereo partly drawn) [Compound 71, (4R)-4-((5-fluoro-2-(5-fluoro-1H-pyrrolo[2,3-b]pyridin-3-yl)pyrimidin-4-yl)amino)-5,5-dimethylhexane-1,2-diol] was tested, and the IC50 [1] was under 300 nM, the “bDNA EC99 (uM)” value ([2]; Table 1) was “A (EC99 (mean all)<0.3 μM)” and the EC50 ([2]; Table 1) was under 300 nM.
For CC(C)(C)[C@@H](CS(=O)(=O)NCC(F)(F)F)Nc1nc(-c2c[nH]c3ncc(F)cc23)ncc1F [Compound 58, (S)-2-(5-fluoro-2-(5-fluoro-1H-pyrrolo[2,3-b]pyridin-3-yl)pyrimidin-4-ylamino)-3,3-dimethyl-N-(2,2,2-trifluoroethyl)butane-1-sulfonamide], the IC50 [1, 3] was under 300 nM, the EC99 [2, 4] was under 0.3 µM and the EC50 [2, 4] was under 300 nM.
In the case of CC(C)(C(CC(=O)O)Nc1nc(-c2c[nH]c3ncc(F)cc23)ncc1F)C(F)(F)F (racemic) [Compound 79, (+/−)-5,5,5-Trifluoro-3-(5-fluoro-2-(5-fluoro-1H-pyrrolo[2,3-b]pyridin-3-yl)pyrimidin-4-ylamino)-4,4-dimethylpentanoic acid], the IC50 [1, 3] is reported as 300 to 3300 nM, the EC99 [2, 4] is reported as 0.3 to 3.3 µM and the EC50 [2, 4] is reported as under 300 nM.
With CC(C)(C)C(CCO)Nc1nc(-c2c[nH]c3ncc(F)cc23)c(C#N)cc1F (racemic) [Compound 41, (+/−)-5-fluoro-2-(5-fluoro-1H-pyrrolo[2,3-b]pyridin-3-yl)-6-(1-hydroxy-4,4-dimethylpentan-3-ylamino)pyridine-3-carbonitrile] the IC50 [1, 3] was under 300 nM, the EC99 [2, 4] was 0.3 to 3.3 µM and the EC50 [2, 4] was under 300 nM.
CC(C)(C)[C@@H](CO)Nc1nc(-c2c[nH]c3ncc(Cl)cc23)ncc1F [Compound 49, (S)-2-((2-(5-chloro-1H-pyrrolo[2,3-b]pyridin-3-yl)-5-fluoropyrimidin-4-yl)amino)-3,3-dimethylbutan-1-ol] gave an IC50 [1, 3] of under 300 nM, an EC99 [2, 4] of 0.3 to 3.3 µM and an EC50 [2, 4] of under 300 nM.
CC1([C@@H](CC(=O)O)Nc2nc(-c3c[nH]c4ncc(F)cc34)ncc2F)CCC1 [Compound 87, 3-((5-fluoro-2-(5-fluoro-1H-pyrrolo[2,3-b]pyridin-3-yl)pyrimidin-4-yl)amino)-3-(1-methylcyclobutyl)propanoic acid] was tested, and the IC50 [1, 3] was under 300 nM, the EC99 [2, 4] was under 0.3 µM and the EC50 [2, 4] was under 300 nM.
O=C(O)CC(Nc1nc(-c2c[nH]c3ncc(Cl)cc23)ncc1F)C12CC3CC(CC(C3)C1)C2 (racemic) [Compound 94, (+/−)-3-(1-Adamantyl)-3-[[2-(5-chloro-1H-pyrrolo[2,3-b]pyridin-3-yl)-5-fluoro-pyrimidin-4-yl]amino]propanoic acid] showed an IC50 [1, 3] of under 300 nM, an EC99 [2, 4] of under 0.3 µM and an EC50 [2, 4] of under 300 nM.
CC(C)(C)[C@@H](Cn1cc(CO)nn1)Nc1nc(-c2c[nH]c3ncc(F)cc23)ncc1F [Compound 68, (S)-(1-(2-((5-fluoro-2-(5-fluoro-1H-pyrrolo[2,3-b]pyridin-3-yl)pyrimidin-4-yl)amino)-3,3-dimethylbutyl)-1H-1,2,3-triazol-4-yl)methanol] was tested, and the IC50 [1, 3] was 300 to 3300 nM, the EC99 [2, 4] was 0.3 to 3.3 µM and the EC50 [2, 4] was under 300 nM.
For CC(C)(C)[C@@H](CS(=O)(=O)NCC(F)F)Nc1nc(-c2c[nH]c3ncc(F)cc23)ncc1F [Compound 57, (S)—N-(2,2-difluoroethyl)-2-(5-fluoro-2-(5-fluoro-H-pyrrolo[2,3-b]pyridin-3-yl)pyrimidin-4-ylamino)-3,3-dimethylbutane-1-sulfonamide], the IC50 [1, 3] was under 300 nM, the EC99 [2, 4] was under 0.3 µM and the EC50 [2, 4] was under 300 nM.
Compound CC(C)(C)[C@@H](CC(=O)O)Nc1ccnc(-c2n[nH]c3ncc(F)cc23)n1 [Compound 48, (R)-3-((2-(5-fluoro-1H-pyrazolo[3,4-b]pyridin-3-yl)pyrimidin-4-yl)amino)-4,4-dimethylpentanoic acid] has an IC50 [1, 3] of under 300 nM, an EC99 [2, 4] of 0.3 to 3.3 µM and an EC50 [2, 4] of 300 to 3300 nM.
CC1(C(CC(=O)O)Nc2nc(-c3c[nH]c4ncc(F)cc34)ncc2F)CCCCC1 (stereo not drawn) [Compound 78, 3-(5-fluoro-2-(5-fluoro-1H-pyrrolo[2,3-b]pyridin-3-yl)pyrimidin-4-ylamino)-3-(1-methylcyclohexyl)propanoic acid] showed an IC50 [1, 3] of under 300 nM, an EC99 [2, 4] of 0.3 to 3.3 µM and an EC50 [2, 4] of under 300 nM.
Compound CC(C)(C)[C@@H](CS(C)(=O)=O)Nc1nc(-c2c[nH]c3ncc(F)cc23)ncc1F [Compound 46, (S)—N-(3,3-dimethyl-1-(methylsulfonyl)butan-2-yl)-5-fluoro-2-(5-fluoro-1H-pyrrolo[2,3-b]pyridin-3-yl)pyrimidin-4-amine] has an IC50 [1, 3] of under 300 nM, an EC99 [2, 4] of over 3.3 µM and an EC50 [2, 4] of 300 to 3300 nM.
Work on CC(C)(C)[C@@H](/C=C/C(=O)O)Nc1nc(-c2c[nH]c3ncc(F)cc23)ncc1F [Compound 59, (R,E)-4-((5-fluoro-2-(5-fluoro-1H-pyrrolo[2,3-b]pyridin-3-yl)pyrimidin-4-yl)amino)-5,5-dimethylhex-2-enoic acid] yielded an IC50 [1, 3] of under 300 nM, an EC99 [2, 4] of 0.3 to 3.3 µM and an EC50 [2, 4] of under 300 nM.
CC(C)(C)NS(=O)(=O)C[C@@H](Nc1nc(-c2c[nH]c3ncc(F)cc23)ncc1F)C(C)(C)C [Compound 40] was tested, and the IC50 [1, 3] was under 300 nM, the EC99 [2, 4] was 0.3 to 3.3 µM and the EC50 [2, 4] was under 300 nM.
CC(C)(C)C(Nc1nc(-c2c[nH]c3ncc(F)cc23)ncc1F)C1CC1C(=O)O (stereo not drawn) [Compound 50, 2-(1-((5-fluoro-2-(5-fluoro-1H-pyrrolo[2,3-b]pyridin-3-yl)pyrimidin-4-yl)amino)-2,2-dimethylpropyl)cyclopropanecarboxylic acid] gave an IC50 [1, 3] of under 300 nM, an EC99 [2, 4] of 0.3 to 3.3 µM and an EC50 [2, 4] of under 300 nM.
CC(C)(C)[C@@H](CC(=O)O)Nc1nc(-c2c[nH]c3ncc(C(F)(F)F)cc23)ncc1F [Compound 43, (R)-3-((5-fluoro-2-(5-(trifluoromethyl)-1H-pyrrolo[2,3-b]pyridin-3-yl)pyrimidin-4-yl)amino)-4,4-dimethylpentanoic acid] showed an IC50 [1, 3] of under 300 nM, an EC99 [2, 4] of under 0.3 µM and an EC50 [2, 4] of under 300 nM.
Work on CC(C)(C)[C@@H](CS(=O)(=O)CC(=O)O)Nc1nc(-c2c[nH]c3ncc(Cl)cc23)ncc1F [Compound 61, (S)-2-(2-(2-(5-chloro-1H-pyrrolo[2,3-b]pyridin-3-yl)-5-fluoropyrimidin-4-ylamino)-3,3-dimethylbutylsulfonyl)ethanoic acid] yielded an IC50 [1, 3] of under 300 nM, an EC99 [2, 4] of 0.3 to 3.3 µM and an EC50 [2, 4] of under 300 nM.
O=C(O)CC(Nc1nc(-c2c[nH]c3ncc(F)cc23)ncc1F)C1CCC1 (racemic) [Compound 44, (+/−)-3-cyclobutyl-3-((5-fluoro-2-(5-fluoro-1H-pyrrolo[2,3-b]pyridin-3-yl)pyrimidin-4-yl)amino)propanoic acid] was tested, and the IC50 [1, 3] was under 300 nM, the EC99 [2, 4] was 0.3 to 3.3 µM and the EC50 [2, 4] was 300 to 3300 nM.
O=C(O)CC(Nc1nc(-c2c[nH]c3ncc(F)cc23)ncc1F)C12CC3CC(CC(C3)C1)C2 (racemic) [Compound 86, (+/−)-3-(1-Adamantyl)-3-[[5-fluoro-2-(5-fluoro-1H-pyrrolo[2,3-b]pyridin-3-yl)pyrimidin-4-yl]amino]propionic acid] showed an IC50 [1, 3] of under 300 nM, an EC99 [2, 4] of 0.3 to 3.3 µM and an EC50 [2, 4] of under 300 nM.
Work on CC(C)(C)[C@@H](CS(=O)(=O)NC1CC1)Nc1nc(-c2c[nH]c3ncc(F)cc23)ncc1F [Compound 21, (S)—N-Cyclopropyl-2-(5-fluoro-2-(5-fluoro-1H-pyrrolo[2,3-b]pyridin-3-yl)pyrimidin-4-ylamino)-3,3-dimethylbutane-1-sulfonamide] yielded an IC50 [1, 3] of under 300 nM, an EC99 [2, 4] of under 0.3 µM and an EC50 [2, 4] of under 300 nM.
In the case of CC1(C(CC(=O)O)Nc2nc(-c3c[nH]c4ncc(F)cc34)ncc2F)CCC1 (stereo not drawn) [Compound 88, 3-((5-fluoro-2-(5-fluoro-1H-pyrrolo[2,3-b]pyridin-3-yl)pyrimidin-4-yl)amino)-3-(1-methylcyclobutyl)propanoic acid], the IC50 [1] is reported as under 300 nM, the “bDNA EC99 (uM)” value ([2]; Table 1) is reported as “B (0.3 μM≤EC99 (mean all)≤3.3 μM)” and the EC50 ([2]; Table 1) is reported as under 300 nM.
